Measured values from patent US20020137704A1, “Methods of inhibiting host-cell mediated viral replication” (priority 2000, published 2002).

Experiments:
U1 cells = assay: Cellular viability of U1 cells treated with FST; assay type: cell-based
Protocol: The cellular viability was >100% for 10 μM FST compared to no treatment and 76.3% for 10 μM FST and PMA compared with PMA alone.

HIV-1 = conditions: U1 cells; for inhibition of PMA-stimulated HIV-1 replication: RT assay
HIV-2 LTR = assay: HIV-2 enhancer CAT reporter assay in transfected U937 cells; assay type: cell-based, Human
Protocol: Cell Culture. Human U937 monocytic cells were maintained in RPMI 1640 medium containing 10% fetal bovine serum (GibcoBRL), penicillin (50 units/ml), streptomycin (50 μg/ml), and L-glutamine (2 mM).
Phosphatase Inhibition. […]
Transfections. 5 μg of CAT reporter construct, pCMV5 PP2Ac, and the empty pCMV5 vector were combined to yield 25 μg total DNA. U937 undergoing logarithmic growth were harvested at 5×10^5 cells/ml and resuspended at 25×10^6 cells/ml in RPMI 1640 media. 10^7 cells (0.4 ml) were aliquoted to 0.4 cm electroporation cuvettes (Invitrogen) and incubated with the appropriate DNA mixture for 5 min at room temperature. The cells were then electroporated using Invitrogen's Electroporator II at a setting of 330 V, 1000 μF, and infinite resistance with an input voltage of approximately 325 V. Following electroporation, the cells from each cotransfection were evenly split ([…]) and placed in separate tissue culture plates in 5 ml of RPMI1640 media+10% FBS. After a period of 12-16 hrs, one group of cells was left untreated while the other received 32 nM TPA for 24 hrs. The cells were then harvested, washed with PBS, and lysed in 0.25 M Tris-HCl (pH 7.5). Protein levels of the lysates were determined by BioRad's colorimetric protein assay (BioRad).
Chloramphenicol Acetyl Transferase (CAT) Assay. For CAT assays, 5-30 μl of cell lysate was combined with 20 μl of 100 mM Tris-HCl (pH 7.5). The final volume was increased to 50 μl with lysis buffer, if necessary, and the mixture incubated for 15 min at 65° C. to inactivate endogenous acetyltransferases. The lysates were then transferred to 7 ml scintillation vials and 200 μl CAT reaction mixture (125 mM Tris-HCl, 1.25 mM chloramphenicol, 0.1 μCi ^3H-acetyl CoA) added. Five ml of Econofluor (Fisher Scientific) scintillation fluid was overlaid and the reaction incubated for 15-90 min before counting. Background and total counts were determined by mixing 200 μl CAT reaction mixture with 5 ml of Econfluor or Scintiverse (Fisher Scientific) respectively. CAT activity was background subtracted and normalized for total amount of protein used.
To test the possibility that PP2A is involved in the activation of the HIV-2 LTR and that PP2A may act on the HIV-2 LTR through the pets site, U937 cells were transfected with an HIV-2 enhancer CAT reporter alone or with pCMV5 PP2Ac, a plasmid encoding the catalytic domain of PP2A. After transfection, cells from each condition were split into an untreated control sample, to assess the baseline effects of PP2A, or a sample that received 32 nM 12-O-tetradecanoyl phorbol-13-acetate (TPA) for 24 hrs. […]

HIV-1 LTR = conditions: literature reports; cited from earlier work

SMILES | cellular viability compared to no treatment (U1 cells; 10 μM FST) | cellular viability compared with PMA alone (U1 cells; 10 μM FST and PMA) | effect of treatment on cellular viability (U1 cells; treatment with FST) | reversal of PMA stimulation of HIV-1 replication (HIV-1; 10 μM, PMA 32 nM) | inhibition of PMA-stimulated HIV-1 replication (HIV-1; PMA 32 nM) | effect on synergy between PP2Ac and TPA in activating HIV-2 enhancer CAT reporter (HIV-2 LTR; 5 μg pCMV5 PP2Ac plus TPA, OKA 50-400 nM) | effect of OKA on CAT activity of TPA-treated cells (HIV-2 LTR; OKA 50-400 nM pretreatment 30 min prior to TPA, U937 cells) | maximal increase in CAT reporter activity (HIV-2 LTR; OKA alone for 18 hrs, maximal activity at 200 nM, U937 cells) | concentration dependence of inhibition of replication (HIV-1; PMA 32 nM, from 50 nM to 200 nM) | inhibition of HIV-1 replication in the absence of PMA (HIV-1; no PMA) | effect on the HIV-1 LTR (HIV-1 LTR) | increase in CAT activity above baseline (HIV-2 LTR; 32 nM TPA, absence of ectopic PP2Ac, U937 cells, HIV-2 CAT reporter)
C[C@@](O)(/C=C/[C@H]1CC=CC(=O)O1)[C@@H](C[C@@H](O)\C=C/C=C\C=C\CO)OP(=O)(O)O [fostreicin] | > 100% | 76.3% | minimally affected | totally reversed PMA stimulation of HIV-1 replication | inhibit PMA-stimulated HIV-1 replication | – | – | – | – | – | – | –
C=C1[C@@H](O)[C@@H]2O[C@]3(CC[C@H](/C=C/[C@@H](C)[C@@H]4CC(C)=C[C@@]5(O[C@H](C[C@@](C)(O)C(=O)O)CC[C@H]5O)O4)O3)CC[C@H]2O[C@@H]1[C@@H](O)C[C@H](C)[C@H]1O[C@@]2(CCCCO2)CC[C@H]1C [okadaic acid] | – | – | – | – | inhibit PMA-stimulated HIV-1 replication | significantly reduced in a dose dependent manner | decrease in CAT activity | 150 fold | inhibited replication in a concentration dependent manner | no inhibition | activate the HIV-1 LTR | –
CCCCCCCCCCCCCC(=O)O[C@@H]1[C@@H](C)[C@@]2(O)[C@@H](C=C(CO)C[C@]3(O)C(=O)C(C)=C[C@@H]23)[C@@H]2C(C)(C)[C@]12OC(C)=O [TPA, 12-O-tetradecanoyl phorbol-13-acetate] | – | – | – | – | – | – | – | – | – | – | – | 148 fold
